Laboratory results as given in patent US7858620B2, “Cyanoisoquinoline” (H. Lundbeck A/S, priority 2007, dated 2010).

Target: T1, PDE10A enzyme (Homo sapiens, UniProt Q9Y233)
T1 construct: made in house; host or cells: E. coli BL21(DE3)
Assay: PDE10A inhibition assay, SPA
Type: biochemical
Settings: column head 2,1334003; unit inferred, nM
Experimental: Active PDE10A enzyme is prepared in a number of ways for use in PDE assays (Loughney, K. et al. Gene 1999, 234, 109-117; Fujishige, K. et al. Eur J Biochem. 1999, 266, 1118-1127 and Soderling, S. et al. Proc. Natl. Acad. Sci. 1999, 96, 7071-7076). PDE10A can be expressed as full-length proteins or as truncated proteins, as long as they express the catalytic domain. PDE10A can be prepared in different cell types, for example insect cells or E. coli. An example of a method to obtain catalytically active PDE10A is as follows: The catalytic domain of human PDE10A (amino acids 440-779 from the sequence with accession number NP 006652) is amplified from total human brain total RNA by standard RT-PCR and is cloned into the BamH1 and Xho1 sites of the pET28a vector (Novagen). Expression in coli is performed according to standard protocols. Briefly, the expression plasmids are transformed into the BL21(DE3) E. coli strain, and 50 mL cultures inoculated with the cells allowed to grow to an OD600 of 0.4-0.6 before protein expression is induced with 0.5 mM IPTG. Following induction, the cells are incubated overnight at room temperature, after which the cells are collected by centrifugation. Cells expressing PDE10A are resuspended in 12 mL (50 mM TRIS-HCl-pH8.0, 1 mM MgCl2 and protease inhibitors). The cells are lysed by sonication, and after all cells are lysed, TritonX100 is added according to Novagen protocols.
PDE10A and Pde3A assays can for example be performed as follows: PDE10A and Pde3A assays are performed in 60 uL samples containing a fixed amount of the relevant PDE enzyme (sufficient to convert 20-25% of the cyclic nucleotide substrate), a buffer (50 mM HEPES7.6; 10 mM MgCl2; 0.02% Tween20), 0.1 mg/ml BSA, 225 pCi of ^3H-labelled cyclic nucleotide substrate, tritium labeled cAMP to a final concentration of 5 nM and varying amounts of inhibitors. Reactions are initiated by addition of the cyclic nucleotide substrate, and reactions are allowed to proceed for one hr at room temperature before being terminated through mixing with 15 uL 8 mg/mL yttrium silicate SPA beads (Amersham). The beads are allowed to settle for one hr in the dark before the plates are counted in a Wallac 1450 Microbeta counter. The measured signal can be converted to activity relative to an uninhibited control (100%) and IC50 values can be calculated using the Xlfit extension to EXCEL.

T1 sequence (Q9Y233 716-1055): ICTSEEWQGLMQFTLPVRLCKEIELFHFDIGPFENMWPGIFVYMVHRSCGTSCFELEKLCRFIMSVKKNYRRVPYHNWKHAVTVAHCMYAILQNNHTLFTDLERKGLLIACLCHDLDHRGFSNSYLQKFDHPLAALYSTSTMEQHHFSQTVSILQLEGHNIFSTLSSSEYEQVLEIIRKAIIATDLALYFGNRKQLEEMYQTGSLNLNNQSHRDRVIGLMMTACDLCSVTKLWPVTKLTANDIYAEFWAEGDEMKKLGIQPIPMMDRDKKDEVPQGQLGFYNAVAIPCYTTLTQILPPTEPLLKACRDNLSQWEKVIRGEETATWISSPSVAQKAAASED

SMILES	IC50 [nM]
COc1ccc(C2CN(c3nc(C)c(C#N)c4cc(OC)c(OC)cc34)CCO2)cc1 (stereo not shown) [Compound 39, 6,7-Dimethoxy-1-[2-(4-methoxy-phenyl)-morpholin-4-yl]-3-methyl-isoquinoline-4-carbonitrile]	930
COc1cc2c(C#N)cnc(N3CCNC(c4ccc5c(c4)OCO5)C3)c2cc1OC (stereo not shown) [Compound 8, 1-(3-Benzo[1,3]dioxol-5-yl-piperazin-1-yl)-6,7-dimethoxy-isoquinoline-4-carbonitrile]	81
COc1cc2c(C#N)cnc(N3CCN[C@H](c4ccccc4)C3)c2cc1OC [Compound 52, 6,7-Dimethoxy-1-(®-3-phenyl-piperazin-1-yl)-isoquinoline-4-carbonitrile]	210
COc1cc2c(C#N)cnc(N3CCNC(c4cccc5ccccc45)C3)c2cc1OC (stereo not shown) [Compound 4, 6,7-Dimethoxy-1-(3-naphthalen-1-yl-piperazin-1-yl)-isoquinoline-4-carbonitrile]	78
COc1cc2c(C#N)cnc(N3CCOC(c4ccc(C(F)(F)F)cc4)C3)c2cc1OC (stereo not shown) [Compound 22, 6,7-Dimethoxy-1-[2-(4-trifluoromethyl-phenyl)-morpholin-4-yl]-isoquinoline-4-carbonitrile]	1600
CCc1ccc(C2CN(c3ncc(C#N)c4cc(OC)c(OC)cc34)CCN2)cc1 (stereo not shown) [Compound 46, 1-[3-(4-Ethyl-phenyl)-piperazin-1-yl]-6,7-dimethoxy-isoquinoline-4-carbonitrile]	1300
COc1cc2c(C#N)cnc(N3CCNC(c4ccccc4OC)C3)c2cc1OC (stereo not shown) [Compound 6, 6,7-Dimethoxy-1-[3-(2-methoxy-phenyl)-piperazin-1-yl]-isoquinoline-4-carbonitrile]	420
COc1cc2c(C#N)cnc(N3CCNC(c4ccc(N5CCOCC5)cc4)C3)c2cc1OC (stereo not shown) [Compound 16, 6,7-Dimethoxy-1-[3-(4-morpholin-4-yl-phenyl)-piperazin-1-yl]-isoquinoline-4-carbonitrile]	76

The remaining lines, values ahead:

IC50 [nM]	SMILES
700	COc1cc2c(C#N)cnc(N3CCNC(c4ccc(Cl)cc4)C3)c2cc1OC (stereo not shown) [Compound 30, 1-[3-(4-Chloro-phenyl)-piperazin-1-yl]-6,7-dimethoxy-isoquinoline-4-carbonitrile]
650	CCOc1ccc(C2CN(c3ncc(C#N)c4cc(OC)c(OC)cc34)CCN2)cc1C (stereo not shown) [Compound 59, 1-[3-(4-Ethoxy-3-methyl-phenyl)-piperazin-1-yl]-6,7-dimethoxy-isoquinoline-4-carbonitrile]
42	COc1ccc(OC)c(C2CN(c3ncc(C#N)c4cc(OC)c(OC)cc34)CCN2)c1 (stereo not shown) [Compound 12, 1-[3-(2,5-Dimethoxy-phenyl)-piperazin-1-yl]-6,7-dimethoxy-isoquinoline-4-carbonitrile]
81	COc1ccc(C2CN(c3ncc(C#N)c4cc(OC)c(OC)cc34)CCN2)cc1Cl (stereo not shown) [Compound 56, 1-[3-(3-Chloro-4-methoxy-phenyl)-piperazin-1-yl]-6,7-dimethoxy-isoquinoline-4-carbonitrile]
2300	COc1cc2c(C#N)cnc(N3CCNC(c4ccc(OC(F)(F)F)cc4)C3)c2cc1OC (stereo not shown) [Compound 60, 6,7-Dimethoxy-1-[3-(4-trifluoromethoxy-phenyl)-piperazin-1-yl]-isoquinoline-4-carbonitrile]
980	COc1ccc2cc(C3CN(c4nc(C)c(C#N)c5cc(OC)c(OC)cc45)CCN3)ccc2c1 (stereo not shown) [Compound 38, 6,7-Dimethoxy-1-[3-(6-methoxy-naphthalen-2-yl)-piperazin-1-yl]-3-methyl-isoquinoline-4-carbonitrile]
1500	COc1cc2c(N3CCNC(c4ccc(N5CCOCC5)cc4)C3)nc(C)c(C#N)c2cc1OC (stereo not shown) [Compound 51, 6,7-Dimethoxy-3-methyl-1-[3-(4-morpholin-4-yl-phenyl)-piperazin-1-yl]-isoquinoline-4-carbonitrile]
520	COc1cc2c(N3CCN[C@H](c4ccccc4)C3)nc(C)c(C#N)c2cc1OC [Compound 40]
